Measurements from ChEMBL document CHEMBL1201862, “PubChem BioAssay data set” (2004).
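All cell lines were grown in 96-well plates and treated with compound for 48 hours. At the GI50, growth is halved.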 Activity calls are given as the source filed them. Cut-off read from the data, not from the text of the source: active = GI50 up to about 1.1 µM and inactive = higher.

Experiments:
Test in all cases: inhibition of tumour cell growth, NCI panel, 48 h
[1] = system: EKVX
[2] = system: ACHN
[3] = system: RXF 393
[4] = system: SK-MEL-2
[5] = system: MCF7
[6] = system: MDA-N
[7] = system: UO-31
[8] = system: A549
[9] = system: HT-29
[10] = system: HCC 2998
[11] = system: COLO 205
[12] = system: SF-268
[13] = system: Malme-3M
[14] = system: OVCAR-5
[15] = system: OVCAR-8
[16] = system: UACC-257
[17] = system: SK-MEL-5
[18] = system: SF-539
[19] = system: U-251
[20] = system: TK-10
[21] = system: HCT-116
[22] = system: IGROV-1
[23] = system: MDA-MB-435
[24] = system: HOP-62
[25] = system: SR
[26] = system: CCRF-CEM
[27] = system: SW-620
[28] = system: M14
[29] = system: HOP-92
[30] = system: DU-145
[31] = system: NCI-H460
[32] = system: SNB-19
[33] = system: Hs-578T
[34] = system: 786-0
[35] = system: NCI-H522
[36] = system: LOX IMVI
[37] = system: NCI/ADR-RES
[38] = system: T47D
[39] = system: SN12C
[40] = system: CAKI-1
[41] = system: NCI-H226
[42] = system: MOLT-4
[43] = system: SF-295
[44] = system: NCI-H23
[45] = system: SK-MEL-28
[46] = system: A498
[47] = system: MDA-MB-231
[48] = system: KM12
[49] = system: HL-60
[50] = system: SNB-75
[51] = system: HCT-15
[52] = system: OVCAR-4
[53] = system: PC-3
[54] = system: RPMI-8226
[55] = system: UACC-62
[56] = system: SK-OV-3
[57] = system: K562
[58] = system: OVCAR-3
[59] = system: BT-549

Measured: GI50

O=C1c2cccc3cc([N+](=O)[O-])cc(c23)C(=O)N1c1ccc(OCCN2CCCC2)cc1
inactive: [1] 21.6 µM | [2] 10 µM | [3] 17.9 µM | [4] 24.5 µM | [5] 7.94 µM | [6] 30.8 µM | [7] 13.6 µM | [8] 3.3 µM | [9] 11.7 µM | [10] 17.1 µM | [11] 9.46 µM | [12] 22 µM | [13] 15 µM | [14] 19.4 µM | [15] 19.8 µM | [16] 16.8 µM | [17] 13.9 µM | [18] 13.3 µM | [19] 16.1 µM | [20] 22.4 µM | [21] 6.79 µM | [22] 12.3 µM | [23] 19.4 µM | [24] 30.5 µM | [25] 2.23 µM | [26] 18.6 µM | [27] 17.2 µM | [28] 20 µM | [29] 24.3 µM | [30] 23.3 µM | [31] 3.26 µM | [32] 26.1 µM | [33] 24.9 µM | [34] 10.6 µM | [35] 10.8 µM | [36] 10.8 µM | [37] 32.5 µM | [38] > 100 µM | [39] > 100 µM | [40] > 100 µM | [41] 9.35 µM | [42] 4.85 µM | [43] 20.8 µM | [44] 17.6 µM | [45] 23 µM | [46] 12.4 µM | [47] 43.2 µM | [48] 22.2 µM | [49] 10.8 µM | [50] 22 µM | [52] 28.1 µM | [53] 22.2 µM
14.2 µM: [51]

CNC(=O)O/N=C1\N(C)CN(c2ccccc2)C12CCN(CCCC(=O)c1ccc(F)cc1)CC2
> 100 µM: [51]
inactive: [1] > 100 µM | [54] > 100 µM | [2] 83.8 µM | [3] 83.6 µM | [4] 60.8 µM | [5] 47.9 µM | [6] 39.4 µM | [7] 90.8 µM | [8] 81.3 µM | [9] 29.1 µM | [10] 43 µM | [11] 18.2 µM | [12] > 100 µM | [13] 32.7 µM | [14] 58.2 µM | [15] > 100 µM | [16] 20.1 µM | [55] > 100 µM | [17] 18.5 µM | [18] 50.6 µM | [19] > 100 µM | [20] 79.4 µM | [21] 33 µM | [22] 46.8 µM | [23] 45.9 µM | [24] 39.4 µM | [56] > 100 µM | [25] 39.3 µM | [26] 99.3 µM | [27] > 100 µM | [28] 16.9 µM | [29] 35.6 µM | [30] > 100 µM | [31] 44.1 µM | [32] > 100 µM | [33] > 100 µM | [34] 75.5 µM | [35] 99.8 µM | [36] 31.1 µM | [37] 45.9 µM | [38] > 100 µM | [39] > 100 µM | [40] > 100 µM | [57] 38.5 µM | [41] > 100 µM | [42] 69 µM | [43] > 100 µM | [44] > 100 µM | [45] > 100 µM | [58] 55.1 µM | [46] 40 µM | [47] 33.5 µM | [48] 27.7 µM | [49] 82 µM | [52] 27.6 µM | [53] > 100 µM
active: [50] 1.01 µM

CCOP(=O)(OCC)/C(C#N)=C/c1cccn1C(C)C
> 100 µM: [51]
inactive: [1] > 100 µM | [2] > 100 µM | [3] > 100 µM | [4] > 100 µM | [5] > 10 µM | [6] > 100 µM | [7] > 100 µM | [8] > 100 µM | [9] > 100 µM | [10] > 100 µM | [11] > 100 µM | [12] > 100 µM | [13] > 100 µM | [14] > 100 µM | [15] > 100 µM | [16] > 100 µM | [55] > 100 µM | [17] > 100 µM | [18] > 100 µM | [19] > 100 µM | [20] > 100 µM | [21] > 100 µM | [22] > 100 µM | [23] > 100 µM | [24] > 100 µM | [56] > 100 µM | [25] > 100 µM | [27] > 100 µM | [28] > 100 µM | [29] > 100 µM | [30] > 100 µM | [59] > 100 µM | [31] > 100 µM | [32] > 100 µM | [34] > 100 µM | [35] > 100 µM | [36] > 100 µM | [37] > 100 µM | [38] > 100 µM | [39] > 100 µM | [40] > 100 µM | [57] > 100 µM | [41] > 100 µM | [42] > 100 µM | [43] > 100 µM | [44] > 100 µM | [45] > 100 µM | [58] > 100 µM | [46] > 100 µM | [47] > 100 µM | [48] > 100 µM | [50] > 100 µM | [53] > 100 µM
